system: Radical scavenging activity; test: Antioxidant activity assessed as DPPH free radical scavenging activity after 30 mins in dark by spectrophotometry; format: functional

Compound | IC50
COC(=O)C1(O)C[C@@H](O)[C@@H](O)[C@H](OC(=O)/C=C/c2ccc(O)c(O)c2)C1 (stereo not given in full) | 18.6 µM
COC(=O)C1(O)C[C@@H](O)[C@@H](O)[C@H](OC(=O)/C=C\c2ccc(O)c(O)c2)C1 (stereo not given in full) | 18.5 µM
Cc1cc(C(C)(C)C)c(O)c(C(C)(C)C)c1 [BUTYLATED HYDROXYTOLUENE] | 62.5 µM
O=C(O[C@H]1[C@H]([C@@]2(c3ccc(O)c(O)c3)CC[C@H](Cc3ccc(O)c(O)c3)C(=O)O2)OC[C@@H]1O)c1cc(O)cc(O)c1 [CHIMARRHININ] | 7.5 µM
O=C(/C=C/c1ccc(O)c(O)c1)O[C@@H]1C[C@](O)(C(=O)O)C[C@@H](O)[C@H]1O [CHLOROGENIC ACID] | 20 µM
